From publication PMC4303209, “A novel phosphatidylinositol 3-kinase (PI3K) inhibitor directs a potent FOXO-dependent, p53-independent cell cycle arrest phenotype characterized by the differential induction of a subset of FOXO-regulated genes” (Breast Cancer Research : BCR, 2014)

Tested on: MCF-7 breast cancer cells
Experiment: Microarray gene expression analysis (Agilent whole human genome 4 x 44K; compound vs DMSO, LIMMA log2 fold change)
Type: cell-based
Conditions: cell cycle genes

With `Cn1ncc2c(N3CCOCC3)nc(-c3cccc(O)c3)nc21` [ETP-45658] the “MLF1 log2FC” value (Gene 4291) was 0.627, the “MLH1 log2FC” value (Gene 4292) was 0.538 and the “MAP3K11 log2FC” value (Gene 4296) was -0.949. The “MNAT1 log2FC” value (Gene 4331) was 0.729, the “MNT log2FC” value (Gene 4335) was 1.624 and the “MOS log2FC” value (Gene 4342) was -0.164. For the same molecule, the “MRE11A log2FC” value (Gene 4361) was 0.332, the “MSH2 log2FC” value (Gene 4436) was 0.939 and the “MSH3 log2FC” value (Gene 4437) was 0.739. For the same molecule, the “MSH4 log2FC” value (Gene 4438) was -0.048, the “MSX1 log2FC” value (Gene 4487) was -0.324 and the “MSX2 log2FC” value (Gene 4488) was 0.054. For the same molecule, the “MUC1 log2FC” value (Gene 4582) was -0.901, the “TRIM37 log2FC” value (Gene 4591) was 0.868 and the “MX2 log2FC” value (Gene 4600) was -0.054. The “MYB log2FC” value (Gene 4602) was 0.452, the “MYBL2 log2FC” value (Gene 4605) was -0.545 and the “MYC log2FC” value (Gene 4609) was 0.554. The “GADD45B log2FC” value (Gene 4616) was 0.642, the “MYH9 log2FC” value (Gene 4627) was -0.364 and the “MYH10 log2FC” value (Gene 4628) was -0.039. For the same molecule, the “PPP1R12A log2FC” value (Gene 4659) was 0.489, the “PPP1R12B log2FC” value (Gene 4660) was 0.389 and the “NUBP1 log2FC” value (Gene 4682) was -0.227. The “NBN log2FC” value (Gene 4683) was 0.839, the “NEDD9 log2FC” value (Gene 4739) was -0.017 and the “NEK1 log2FC” value (Gene 4750) was 0.621. The “NEK2 log2FC” value (Gene 4751) was 0.969, the “NEUROD1 log2FC” value (Gene 4760) was -0.043 and the “NGFR log2FC” value (Gene 4804) was -0.063. The “NOTCH2 log2FC” value (Gene 4853) was 0.166, the “NPAT log2FC” value (Gene 4863) was 0.585 and the “NPM1 log2FC” value (Gene 4869) was 0.586. For the same molecule, the “NUP88 log2FC” value (Gene 4927) was 0.539, the “ODF2 log2FC” value (Gene 4957) was -0.215 and the “OSM log2FC” value (Gene 5008) was 0.056. For the same molecule, the “OVOL1 log2FC” value (Gene 5017) was -0.043, the “PAFAH1B1 log2FC” value (Gene 5048) was 0.720 and the “PAK1 log2FC” value (Gene 5058) was 0.117. The “PAK3 log2FC” value (Gene 5063) was 0.230, the “PCM1 log2FC” value (Gene 5108) was 0.687 and the “PCNT log2FC” value (Gene 5116) was 0.317. The “PDGFB log2FC” value (Gene 5155) was -0.598, the “PDGFRB log2FC” value (Gene 5159) was 0.022 and the “PGGT1B log2FC” value (Gene 5229) was -0.232. For the same molecule, the “ABCB1 log2FC” value (Gene 5243) was -0.025, the “PIK3C3 log2FC” value (Gene 5289) was 1.044 and the “PIM1 log2FC” value (Gene 5292) was 1.131. For the same molecule, the “PIN1 log2FC” value (Gene 5300) was -0.195, the “PKD1 log2FC” value (Gene 5310) was 0.265 and the “PKD2 log2FC” value (Gene 5311) was 0.346. For the same molecule, the “PKHD1 log2FC” value (Gene 5314) was -0.057, the “PLAGL1 log2FC” value (Gene 5325) was 0.310 and the “PML log2FC” value (Gene 5371) was -0.804. For the same molecule, the “PMS1 log2FC” value (Gene 5378) was 0.682, the “PMS2 log2FC” value (Gene 5395) was 0.442 and the “POLD1 log2FC” value (Gene 5424) was 0.148. For the same molecule, the “POLE log2FC” value (Gene 5426) was -0.223, the “PPAT log2FC” value (Gene 5471) was 0.243 and the “PPM1A log2FC” value (Gene 5494) was 0.474. For the same molecule, the “PPP1CB log2FC” value (Gene 5500) was 1.012, the “PPP1CC log2FC” value (Gene 5501) was 0.572 and the “PPP2R1A log2FC” value (Gene 5518) was -0.055. The “PPP2R2A log2FC” value (Gene 5520) was 0.059, the “PPP2R4 log2FC” value (Gene 5524) was -0.446 and the “PPP2R5C log2FC” value (Gene 5527) was 0.888. For the same molecule, the “PPP3CA log2FC” value (Gene 5530) was 0.422, the “PPP5C log2FC” value (Gene 5536) was -0.138 and the “PPP6C log2FC” value (Gene 5537) was -0.352. The “PRCC log2FC” value (Gene 5546) was -0.798, the “PRIM1 log2FC” value (Gene 5557) was 0.636 and the “PRKAA1 log2FC” value (Gene 5562) was 0.429. The “PRKAA2 log2FC” value (Gene 5563) was 0.082, the “PRKAB1 log2FC” value (Gene 5564) was 0.427 and the “PRKAB2 log2FC” value (Gene 5565) was 1.177. For the same molecule, the “PRKACA log2FC” value (Gene 5566) was -0.596, the “PKIA log2FC” value (Gene 5569) was -0.378 and the “PRKAG1 log2FC” value (Gene 5571) was 0.238. For the same molecule, the “PRKAR1A log2FC” value (Gene 5573) was 0.532, the “PRKAR2B log2FC” value (Gene 5577) was 0.565 and the “PRKCA log2FC” value (Gene 5578) was -0.217. The “PRKCD log2FC” value (Gene 5580) was -0.079, the “PRKCE log2FC” value (Gene 5581) was -0.042 and the “PKN2 log2FC” value (Gene 5586) was 0.510. For the same molecule, the “MAPK1 log2FC” value (Gene 5594) was -0.045, the “MAPK3 log2FC” value (Gene 5595) was -0.190 and the “MAPK13 log2FC” value (Gene 5603) was -0.354. The “MAP2K1 log2FC” value (Gene 5604) was -0.107, the “MAP2K6 log2FC” value (Gene 5608) was 0.116 and the “PROX1 log2FC” value (Gene 5629) was 0.206. The “KLK10 log2FC” value (Gene 5655) was -0.446, the “PSMA1 log2FC” value (Gene 5682) was 0.045 and the “PSMA4 log2FC” value (Gene 5685) was 0.609. For the same molecule, the “PSMA6 log2FC” value (Gene 5687) was 0.200, the “PSMB1 log2FC” value (Gene 5689) was 0.085 and the “PSMB2 log2FC” value (Gene 5690) was -0.547. For the same molecule, the “PSMB3 log2FC” value (Gene 5691) was -0.030, the “PSMB5 log2FC” value (Gene 5693) was -0.298 and the “PSMB6 log2FC” value (Gene 5694) was -0.120. The “PSMB8 log2FC” value (Gene 5696) was -0.045, the “PSMC1 log2FC” value (Gene 5700) was 0.172 and the “PSMC2 log2FC” value (Gene 5701) was 0.576. The “PSMC5 log2FC” value (Gene 5705) was -0.327, the “PSMC6 log2FC” value (Gene 5706) was 0.776 and the “PSMD2 log2FC” value (Gene 5708) was 0.090. The “PSMD3 log2FC” value (Gene 5709) was -0.109, the “PSMD4 log2FC” value (Gene 5710) was -0.086 and the “PSMD5 log2FC” value (Gene 5711) was 0.388. For the same molecule, the “PSMD7 log2FC” value (Gene 5713) was 0.182, the “PSMD9 log2FC” value (Gene 5715) was -0.171 and the “PSMD12 log2FC” value (Gene 5718) was -0.582. The “PSMD13 log2FC” value (Gene 5719) was -0.031, the “PSME2 log2FC” value (Gene 5721) was 0.039 and the “PTEN log2FC” value (Gene 5728) was 1.014. For the same molecule, the “PTGS2 log2FC” value (Gene 5743) was -0.151, the “PTPN3 log2FC” value (Gene 5774) was -0.174 and the “PTPN6 log2FC” value (Gene 5777) was 0.120. For the same molecule, the “PTPRC log2FC” value (Gene 5788) was -0.053, the “PTPRK log2FC” value (Gene 5796) was 0.583 and the “RAD1 log2FC” value (Gene 5810) was -0.104. The “RAD9A log2FC” value (Gene 5883) was 0.686, the “RAD17 log2FC” value (Gene 5884) was 1.203 and the “RAD21 log2FC” value (Gene 5885) was 1.043. The “RAD51 log2FC” value (Gene 5888) was -0.360, the “RAD52 log2FC” value (Gene 5893) was 0.105 and the “RAN log2FC” value (Gene 5901) was 0.119. For the same molecule, the “RANBP1 log2FC” value (Gene 5902) was -0.137, the “RANBP2 log2FC” value (Gene 5903) was 0.605 and the “RARA log2FC” value (Gene 5914) was -0.580. For the same molecule, the “RASA1 log2FC” value (Gene 5921) was 0.488, the “RB1 log2FC” value (Gene 5925) was 0.746 and the “RBL2 log2FC” value (Gene 5934) was 0.480. For the same molecule, the “RFC1 log2FC” value (Gene 5981) was 1.105, the “RFC2 log2FC” value (Gene 5982) was 0.117 and the “RFC5 log2FC” value (Gene 5985) was 0.243. For the same molecule, the “RGS2 log2FC” value (Gene 5997) was -2.314, the “RHEB log2FC” value (Gene 6009) was 0.421 and the “RNF2 log2FC” value (Gene 6045) was -0.048. For the same molecule, the “RNF4 log2FC” value (Gene 6047) was -0.426, the “RPA3 log2FC” value (Gene 6119) was 0.162 and the “RPS6KA2 log2FC” value (Gene 6196) was 0.035. For the same molecule, the “RPS6KA3 log2FC” value (Gene 6197) was 0.412, the “RPS15A log2FC” value (Gene 6210) was 0.277 and the “RPS27 log2FC” value (Gene 6232) was 0.416. The “RPS27A log2FC” value (Gene 6233) was 0.401, the “RRM1 log2FC” value (Gene 6240) was 0.612 and the “RRM2 log2FC” value (Gene 6241) was -0.808. For the same molecule, the “SETMAR log2FC” value (Gene 6419) was -0.171, the “SIAH2 log2FC” value (Gene 6478) was -0.579 and the “SKP2 log2FC” value (Gene 6502) was -1.072. The “SMARCA4 log2FC” value (Gene 6597) was -0.352, the “SOX2 log2FC” value (Gene 6657) was 0.298 and the “SOX9 log2FC” value (Gene 6662) was -2.381. The “SPAST log2FC” value (Gene 6683) was 0.519, the “SPTBN1 log2FC” value (Gene 6711) was 0.111 and the “SRPK2 log2FC” value (Gene 6733) was 0.850. For the same molecule, the “TRIM21 log2FC” value (Gene 6737) was -0.066.
